{
  "source": "paper PMC7287670",
  "about": "“Tyrosinase Inhibition and Kinetic Details of Puerol A Having But-2-Enolide Structure from Amorpha fruticosa” (Molecules, 2020)",
  "key": {"[1]": {"system": "B16F10 mouse melanoma cells", "assay": "Cell viability assay (MTT) in B16F10 melanoma cells", "assay_type": "cell-based", "details": "B16 cells, 48 h", "protocol": "(§1) The B16F10 mouse melanoma cell (American Type of Culture Collection, VA, USA) were cultured as previously reported. Briefly, the cells were incubated in DMEM containing 10% fetal bovine serum and 1% penicillin/streptomycin (Sigma–Aldrich, St. Louis, MO, USA) at 37 °C in a 5% CO2 humidified incubator.\nThe cell viability assay of the B16F10 mouse melanoma cells were conducted with subtle variation in previous methods. The cells were incubated in 96-well plates overnight. […] After incubation, 5 μg/mL of MTT solution was added to the each well and the cells were incubated for 3 h. After the medium was removed, the cells were treated with dimethyl sulfoxide (DMSO) and cultured at room temperature for 20 min. The absorbance at 595 nm was measured on a Bio-Rad microplate reader (Hercules, CA, USA)."}, "tyrosinase [2]": {"biological_target": "T1, tyrosinase (Agaricus bisporus, UniProt C7FF04)", "T1 construct": "purchased Sigma-Aldrich Co., St. Louis, MO, USA", "T1 sequence (C7FF04 1-392)": "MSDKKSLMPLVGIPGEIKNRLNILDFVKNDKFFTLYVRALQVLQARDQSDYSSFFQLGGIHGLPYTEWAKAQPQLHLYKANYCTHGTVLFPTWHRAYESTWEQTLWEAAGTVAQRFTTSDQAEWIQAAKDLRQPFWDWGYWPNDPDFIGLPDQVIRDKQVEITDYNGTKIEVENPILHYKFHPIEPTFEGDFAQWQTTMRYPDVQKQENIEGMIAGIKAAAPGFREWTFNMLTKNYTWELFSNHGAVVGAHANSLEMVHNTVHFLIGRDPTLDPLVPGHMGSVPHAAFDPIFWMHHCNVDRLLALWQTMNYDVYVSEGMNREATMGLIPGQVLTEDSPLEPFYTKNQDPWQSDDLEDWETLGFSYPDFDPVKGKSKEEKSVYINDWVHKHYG", "assay": "Fluorescence quenching measurement of binding affinity to tyrosinase", "protocol": "To measure fluorescence from the tyrosinase enzyme, 10 μL of 260 unit/mL enzyme solution with 165 μL of phosphate buffer (0.05 M) were added into 96-well black immunoplates. Afterward, 5 μL of various concentrations (2.5–20 μM) of inhibitor was added into each well. All fluorescence spectra were obtained by a SpectraMax M3 spectrophotometer (Molecular Devices, San Jose, CA, USA). The spectra were measured from 300 to 400 nm with emission slits regulated to 2.0 nm, and the excitation wavelength was 265 nm. The Stern–Volmer quenching constant (KSV) was estimated using Equation (6). All experiments were carried out in triplicate, and the mean values were calculated. (6) […] where F0 and F are the fluorescence intensities in the absence and presence of quencher (Q). KSV is the Stern–Volmer quenching constant [L M^−1]. For static quenching, the correlation between the fluorescence intensity and the concentration of the quencher for the series of reactions can be expressed by Equation (7). (7) log[(F0 − F)/F]=logKA+nlog[Q]f\nF0 and F are the fluorescence intensities in the absence and presence of inhibitor; KA is the binding constant; n is the number of binding sites of the enzyme; Qf is the concentration of inhibitor [24]."}, "tyrosinase [3]": {"biological_target": "T1, tyrosinase", "assay": "HPLC analysis of tyrosinase inhibition with N-acetyl-L-tyrosine as substrate", "assay_type": "biochemical", "details": "HPLC at 275 nm", "protocol": "The HPLC analysis of tyrosinase inhibition was carried out by giving minor alterations in the previous procedure with N-acetyl-L-tyrosine as a substrate. The 4.5 mM of the substrate was prepared in the 50 mM phosphate buffer (pH 6.8). Then, 670 units/mL tyrosinase (Sigma-Aldrich Co., St. Louis, MO, USA) solution and several concentrations of the inhibitor solution were arranged. The N-acetyl-L-tyrosine was observed on 275 nm with 4.6 min of tR by eluting the mobile phase consisting of A (H2O) and B (acetonitrile, ACN), with the following isocratic condition: 0–8 min and A/B = 90:10 (v/v). After 20 μL of the sample solution was subjected to the HPLC (Pack ODS-AQ C18 column, YMC) system, the reactions were measured every 15 min. All procedures were carried out at room temperature."}, "[4]": {"biological_target": "T2, tyrosinase (monophenolase) (Agaricus bisporus, UniProt C7FF04)", "T2 construct": "purchased Sigma-Aldrich Co., St. Louis, MO, USA", "T2 sequence (C7FF04 1-392)": "as above", "assay": "Time-dependent assays and progress curves (slow-binding kinetics, lag phase)", "assay_type": "biochemical, mushroom", "details": "for Type of inhibitor (time-dependent inhibition): L-tyrosine, preincubation and progress curves", "protocol": "The assays were carried out using tyrosinase (260 units) and L-tyrosine as a substrate of monophenolase in 0.25 M phosphate buffer (pH 6.8) at 30 °C. The enzyme activity was recorded sequentially for 30 min by a UV spectrophotometer. To evaluate the time-dependent inhibition and the kinetic parameters of tyrosinase, progress curves with 30 s intervals were measured at different concentrations of the inhibitor and substrate. The data were through the use of Sigma Plot (SPCC Inc., Chicago, IL, USA) as a nonlinear regression program to provide the respective parameters for each curve; A (absorbance at 475 nm), vi (initial rate), vss (steady-state rate), kobs (apparent first-order rate constant for the transition from vi to vss), and Kiapp (apparent Ki) in accordance with the following Equations (2)–(5). (2) A=vsst+vi − vss1 −exp−kobst/kobs (3) v/v0=exp (−kobst) (4) kobs=k4 (1+[I]/Kiapp) (5) Kiapp=k4/k3\nThe value of −kobs was estimated by a slope of the straight line from the plot of the natural log of the residual enzyme activity vs. the preincubation time. The plot of kobs vs. the concentration of inhibitors gave the values of k3, k4, and Kiapp on the basis of Morrison and Walsh’s method."}, "[5]": {"system": "B16F10 mouse melanoma cells", "assay": "L-DOPA oxidation (cellular tyrosinase) in α-MSH-treated B16F10 melanoma cells", "assay_type": "cell-based", "details": "B16 cells, 48 h in the presence of α-MSH", "protocol": "as §1\nB16F10 mouse melanoma cells were seeded on to 6-well plates at a density of 1 × 10^5 cells per well and cultured for 24 h. Then, the cells were treated with α-MSH (1 μM) in the presence or absence of different concentrations of compound 1, followed by incubation for 48 h. The incubated cells were collected and dissolved with 1% Triton X-100 solution for 1 h on ice. Then, the cells were cultured for 4 h with 100 μL (2 mg/mL) L-DOPA in a 5% CO2 humidifying incubator at 37 °C condition. After that, by using a microplate reader (Bio-Rad), absorbance at 490 nm was measured."}, "[6]": {"system": "B16F10 mouse melanoma cells", "assay": "Melanin content in α-MSH-stimulated B16F10 melanoma cells", "assay_type": "cell-based", "details": "B16 cells, 48 h in the presence of α-MSH, read-out: Melanin Synthesis IC50", "protocol": "as §1\nFor the analysis of melanin content accumulated in the cytosol, B16F10 mouse melanoma cells were seeded on to six-well plates at a density of 1 × 10^5 cells per well, and cultured for 24 h. Then, the cells were treated with 1 μM of α-MSH (Sigma–Aldrich, St. Louis, MO, USA) in the presence or absence of different concentrations of compound 1. Thereafter, the cells were collected using trypsin-EDTA (Lonza, Walkersville, MD, USA) and dissolved in 1 N NaOH, including 10% DMSO at 65 °C for 24 h. The melanin content was determined at 415 nm by a Bio-Rad microplate reader."}, "[7]": {"biological_target": "T3, Mushroom tyrosinase (diphenolase) (Agaricus bisporus, UniProt C7FF04)", "T3 construct": "purchased Sigma-Aldrich Co., St. Louis, MO, USA", "T3 sequence (C7FF04 1-392)": "as above", "assay": "Mushroom tyrosinase diphenolase inhibition (L-DOPA as substrate, 475 nm)", "assay_type": "biochemical", "details": "for IC50: substrate L-DOPA", "protocol": "(§2) Mushroom tyrosinase (EC 1. 14. 18. 1) (Sigma-Aldrich Co., St. Louis, MO, USA) activity was performed in accordance with the previously described method with subtle modification, using L-tyrosine and L-3,4-dihydroxylphenylalanine (L-DOPA) for monophenolase and diphenolase as substrates, respectively. Two hundred sixty units/mL of the tyrosinase stock solution was prepared at optimum pH 6.8 (0.05 M phosphate buffer). The inhibitors were initially dissolved in DMSO and diluted to several concentrations. […] Then, 10 μL of the enzyme was added to the mixture. Subsequent absorbance of DOPA chrome formation was recorded at 475 nm by means of an UV-Vis spectrophotometer (SpectraMax M3, Molecular Devices, San Jose, CA, USA) in a 96-well microplate at 30 °C. Three separate determinations were conducted for each assay.\n(§3) The characteristic of tyrosinase inhibition was represented by Lineweaver−Burk double-reciprocal-plot and Dixon plot at specified concentrations of the substrates and inhibitors, respectively."}, "[8]": {"biological_target": "T4, Mushroom tyrosinase (monophenolase) (Agaricus bisporus, UniProt C7FF04)", "T4 construct": "purchased Sigma-Aldrich Co., St. Louis, MO, USA", "T4 sequence (C7FF04 1-392)": "as above", "assay": "Mushroom tyrosinase monophenolase inhibition (L-tyrosine as substrate, 475 nm)", "assay_type": "biochemical", "details": "for L-Tyrosine Inhibition Mode: Lineweaver–Burk plot; for IC50: substrate L-tyrosine", "protocol": "as §2, §3"}, "[9]": {"details": "slow-binding, L-tyrosine as substrate"}, "[10]": {"details": "pH 6.8, 30 °C, read-out: L-DOPA IC50 Value (diphenolase)"}, "[11]": {"details": "pH 6.8, 30 °C, read-out: L-Tyrosine IC50 Value (monophenolase)"}},
  "note": "Where two headings read alike, the source gives them in different places.",
  "data": [
    {"compound": "O=C1C=C(c2ccc(O)cc2O)C(Cc2ccc(O)cc2)O1", "note": "(stereo not shown) [Compound 1, Puerol A]", "values": [
      {"measurement": "Cytotoxicity LD50", "setting": "[1]", "result": "137.8 ± 1.2", "unit": "µM"},
      {"measurement": "n (number of binding sites)", "setting": "tyrosinase [2]; from log[(F0 − F)/F] plot", "result": "one"},
      {"measurement": "KSV (Stern–Volmer quenching constant)", "setting": "tyrosinase [2]; inhibitor 2.5–20 μM, excitation 265 nm, emission 300–400 nm", "result": 145000, "unit": "L/mol"},
      {"measurement": "oxidation of N-acetyl-L-tyrosine blocked", "setting": "tyrosinase [3]; 5 μM", "result": 56, "unit": "%"},
      {"measurement": "oxidation of N-acetyl-L-tyrosine blocked", "setting": "tyrosinase [3]; 10 μM", "result": 86, "unit": "%"},
      {"measurement": "oxidation of N-acetyl-L-tyrosine blocked", "setting": "tyrosinase [3]; 20 μM, listed as Puerol A", "result": "completely inhibited"},
      {"measurement": "oxidation of N-acetyl-L-tyrosine blocked", "setting": "tyrosinase [3]; 20 μM, listed as puerol A", "result": 95, "unit": "%"},
      {"measurement": "Ki", "setting": "[4]; Kiapp = k4/k3", "result": 0.107, "unit": "µM"},
      {"measurement": "Type of inhibitor (time-dependent inhibition)", "setting": "[4]", "result": "simple, reversible, slow-binding inhibitor"},
      {"measurement": "Type of inhibitor (time-dependent inhibition)", "setting": "[4]; listed as Puerol A", "result": "reversible, competitive, simple slow-binding inhibitor"},
      {"measurement": "Type of inhibitor (time-dependent inhibition)", "setting": "[4]; listed as puerol A", "result": "competitive inhibitor and reversible, simple slow-binding inhibitor"},
      {"measurement": "lag phase of L-tyrosine oxidation", "setting": "[4]; inhibitor 0.5–8.0 μM, 60 s without inhibitor", "result": "up to 600 s"},
      {"measurement": "k3", "setting": "[4]; [9]", "result": 465, "unit": "M⁻¹ s⁻¹"},
      {"measurement": "k4", "setting": "[4]; [9]", "result": 0.003, "unit": "min⁻¹"},
      {"measurement": "IC50", "setting": "[5]", "result": "23.9 ± 1.4", "unit": "µM"},
      {"measurement": "IC50", "setting": "[6]", "result": "11.4 ± 1.2", "unit": "µM"},
      {"measurement": "Ki", "setting": "[7]; diphenolase, Dixon plot", "result": 1.95, "unit": "µM"},
      {"measurement": "L-DOPA Inhibition Mode", "setting": "[7]; diphenolase, Lineweaver–Burk plot", "result": "competitive inhibition mode"},
      {"measurement": "IC50", "setting": "[7]; [10]", "result": "3.88 ± 0.3", "unit": "µM"},
      {"measurement": "Reversibility of inhibition", "setting": "[8]; initial velocity vs tyrosinase and inhibitor concentrations", "result": "reversible inhibitor"},
      {"measurement": "Ki", "setting": "[8]; monophenolase, Dixon plot", "result": 0.87, "unit": "µM"},
      {"measurement": "L-Tyrosine Inhibition Mode", "setting": "[8]; monophenolase", "result": "Competitive"},
      {"measurement": "L-Tyrosine Inhibition Mode", "setting": "[8]; monophenolase, listed as puerol A", "result": "competitively"},
      {"measurement": "IC50", "setting": "[8]; [11]", "result": "2.2 ± 0.2", "unit": "µM"}
    ]},
    {"compound": "O=C1C=C(c2ccc(O)cc2O[C@@H]2O[C@H](CO)[C@@H](O)[C@H](O)[C@H]2O)C(Cc2ccc(O)cc2)O1", "note": "(stereo partly shown) [Compound 2, Kuzubutenolide A]", "values": [
      {"measurement": "IC50", "setting": "[7]; [10]", "result": "> 200", "unit": "µM"},
      {"measurement": "IC50", "setting": "[7]; read-out: IC50 diphenolase", "result": 1900, "unit": "µM"},
      {"measurement": "IC50", "setting": "[8]; [11]", "result": "> 200", "unit": "µM"},
      {"measurement": "IC50", "setting": "[8]; read-out: IC50 monophenolase", "result": 1500, "unit": "µM"}
    ]},
    {"compound": "O=c1cc(CO)occ1O", "note": "[Kojic acid, reference compound]", "values": [
      {"measurement": "Cytotoxicity LD50", "setting": "[1]", "result": ">500", "unit": "µM"},
      {"measurement": "IC50", "setting": "[5]", "result": "> 500", "unit": "µM"},
      {"measurement": "IC50", "setting": "[6]", "result": "> 500", "unit": "µM"}
    ]}
  ]
}
